# Assays:
# [1] = system: MIA-PACA2 pancreatic cancer cell lines; experiment: Cell proliferation assay, alternate assay conditions (DAPI fluorescence); assay type: cell-based; details: Homo sapiens, MIA PaCa-2; * = tested at 10 μM, alternate conditions, MIA-PACA2
# Method: Cell lines: Tumor-derived pancreatic cancer cell lines MIA-PACA2 were purchased from ATCC and grown in complete DMEM-High Glucose medium supplemented with penicillin (100 U/mL), streptomycin (100 μg/mL), and 10% heat-inactivated FBS at 37° C. in a humidified incubator with 5% CO2.
# Method: Cells are plated at 4000 cells/well density in 96-wells plate. The next day tested small molecules are added to the cells in the final concentration of 10 μM in the presence of 0.3% DMSO and 10% FBS. After small molecules addition, cells are incubated for 4 days at 37° C. in a humidified incubator with 5% CO2. For IC50 value determination, serial dilutions of compounds were added to cells under the same conditions.
# Assay: At the end of the incubation period, cell cultures are fixed with a 50-50 mixture (v/v) acetone-methanol for 10 minutes at −20° C., followed by rehydration in PBS for 10 minutes at room temperature. After rehydration, cells are stained with DAPI (1 μg/ml) in PBS for 10 minutes at room temperature, followed by 3 washes with PBS. After staining, DAPI fluorescence is recorded (358 nm excitation/461 nm emission) with the 96-well plate reader Molecular Devices Spectramax M3; degree of small mole-cule-dependent proliferation inhibition is calculated from raw data assuming No Serum cells value as 100%.
# [2] = target: KRas G12D mutant protein (Homo sapiens (Human), UniProt P01116, G12D); experiment: Ras GTP binding domain inhibition assay (labeled GTP); details: 20 μM compound; KRas G12D; read-out: % Inhibition at 20 μM of K-Ras mutant and wild-type protein, KRas G12D
# Chain of KRas G12D mutant protein (P01116-2 other isoform, or with tags, fused parts or gaps G12D): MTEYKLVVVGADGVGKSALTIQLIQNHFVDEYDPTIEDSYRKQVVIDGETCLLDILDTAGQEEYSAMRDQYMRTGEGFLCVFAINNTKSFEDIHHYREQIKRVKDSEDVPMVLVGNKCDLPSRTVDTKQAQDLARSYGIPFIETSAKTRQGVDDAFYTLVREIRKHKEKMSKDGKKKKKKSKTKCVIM
# [3] = target: KRas G12C mutant (Homo sapiens (Human), UniProt P01116, G12C); experiment: as above; details: 20 μM compound; KRas G12C; read-out: % Inhibition at 20 μM of K-Ras mutant and wild-type protein, KRas G12C
# Chain of KRas G12C mutant (P01116-2 other isoform, or with tags, fused parts or gaps G12C): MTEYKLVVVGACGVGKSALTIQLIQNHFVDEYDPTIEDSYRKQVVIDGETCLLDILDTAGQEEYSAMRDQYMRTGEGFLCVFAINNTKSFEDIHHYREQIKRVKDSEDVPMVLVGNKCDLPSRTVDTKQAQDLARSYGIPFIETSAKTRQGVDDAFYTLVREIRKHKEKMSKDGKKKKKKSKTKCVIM
# Method in brief: (§1)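 Labelled-GTP binding: plate-captured His-KRas protein was pre-exposed to compound for 3 h at room temperature (single 20 μM point or dilution series, 1% DMSO, Tris pH 7.5/MgCl2/DTT buffer). Cy3- or Cy5-GTP was then added for 45 min. Washed wells were read for retained fluorescence to give inhibition or IC50.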
# [4] = target: KRas G12C/Q61H double mutant (Homo sapiens (Human), UniProt P01116, G12C/Q61H); experiment: as above; details: 20 μM compound; KRas G12C/Q61H double mutant; read-out: % Inhibition at 20 μM of K-Ras mutant and wild-type protein, KRas G12C Q61H
# Chain of KRas G12C/Q61H double mutant (P01116-2 other isoform, or with tags, fused parts or gaps G12C/Q61H): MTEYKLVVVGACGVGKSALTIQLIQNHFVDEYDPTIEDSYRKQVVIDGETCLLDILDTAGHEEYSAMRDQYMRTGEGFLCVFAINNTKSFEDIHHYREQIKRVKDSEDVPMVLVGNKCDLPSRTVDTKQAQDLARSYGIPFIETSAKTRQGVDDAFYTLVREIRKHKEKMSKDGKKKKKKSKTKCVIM
# Method in brief: as §1
# [5] = target: KRas G12D/Q61H double mutant (Homo sapiens (Human), UniProt P01116, G12D/Q61H); experiment: as above; details: 20 μM compound; KRas G12D/Q61H double mutant; read-out: % Inhibition at 20 μM of K-Ras mutant and wild-type protein, KRas G12D Q61H
# Chain of KRas G12D/Q61H double mutant (P01116-2 other isoform, or with tags, fused parts or gaps G12D/Q61H): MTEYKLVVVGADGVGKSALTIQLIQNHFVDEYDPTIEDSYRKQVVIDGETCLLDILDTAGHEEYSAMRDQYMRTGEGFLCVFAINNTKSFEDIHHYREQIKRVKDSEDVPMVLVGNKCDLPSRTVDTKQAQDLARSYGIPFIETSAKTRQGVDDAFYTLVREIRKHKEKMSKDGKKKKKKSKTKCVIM
# Method in brief: as §1
# [6] = target: KRas Q61H mutant (Homo sapiens (Human), UniProt P01116, Q61H); experiment: as above; details: 20 μM compound; KRas Q61H; read-out: % Inhibition at 20 μM of K-Ras mutant and wild-type protein, KRas Q61H
# Chain of KRas Q61H mutant (P01116-2 other isoform, or with tags, fused parts or gaps Q61H): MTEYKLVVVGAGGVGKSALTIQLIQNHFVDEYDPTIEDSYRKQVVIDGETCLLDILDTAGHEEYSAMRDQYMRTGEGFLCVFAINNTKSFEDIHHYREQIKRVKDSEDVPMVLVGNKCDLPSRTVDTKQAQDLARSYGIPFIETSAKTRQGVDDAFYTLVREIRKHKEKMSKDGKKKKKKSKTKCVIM
# Method in brief: as §1
# [7] = target: KRas wild type (Homo sapiens (Human), UniProt P01116); experiment: as above; details: 20 μM compound; KRas wild type; read-out: % Inhibition at 20 μM of K-Ras mutant and wild-type protein, KRas wild type
# Chain of KRas wild type (P01116-2 other isoform, or with tags, fused parts or gaps): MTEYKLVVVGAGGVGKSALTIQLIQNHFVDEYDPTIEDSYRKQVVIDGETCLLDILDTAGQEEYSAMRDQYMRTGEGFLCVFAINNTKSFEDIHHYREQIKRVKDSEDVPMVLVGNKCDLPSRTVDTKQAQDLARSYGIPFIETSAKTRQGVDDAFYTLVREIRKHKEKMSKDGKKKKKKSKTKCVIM
# Method in brief: as §1
smiles,measurement,setting,value
COc1nc(-c2ccccn2)nc2c(-c3cccc(O)n3)csc12,inhibition at 10 µM,[1],76 to 100%
CCC(C)Nc1nc(-c2ccccn2)nc2sc(-c3ccncc3)c(-c3ccccc3)c12 (centres unmarked),inhibition at 10 µM,[1],51 to 75%
O=C(NCCc1ccncn1)c1csc2nc(-c3ccccn3)nc(N3CCOCC3)c12 [drawing 1796],inhibition at 10 µM,[1],1 to 25%
CC(C)c1nn(C)cc1-c1csc2c(O)nc(-c3ccccn3)nc12 [drawing 1797],inhibition at 10 µM,[1],76 to 100%
CN(C)CCOc1cccc(-c2csc3c(O)nc(-c4ccccn4)nc23)c1 [drawing 1798],inhibition at 10 µM,[1],76 to 100%
Oc1nc(-c2ccccn2)nc2c(-c3cc(CN4CCCC4)ccc3F)csc12 [drawing 1799],inhibition at 10 µM,[1],76 to 100%
N#Cc1cccc(-c2csc3c(O)nc(-c4ccccn4)nc23)c1 [drawing 1800],inhibition at 10 µM,[1],76 to 100%
Oc1nc(-c2ccccn2)nc2c(-c3cncnc3)csc12 [drawing 1801],inhibition at 10 µM,[1],0%
Cc1c(-c2csc3c(O)nc(-c4ccccn4)nc23)cnn1C [drawing 1802],inhibition at 10 µM,[1],76 to 100%
Cc1nn(C(C)C)cc1-c1csc2c(O)nc(-c3ccccn3)nc12 [drawing 1803],inhibition at 10 µM,[1],76 to 100%
Oc1nc(-c2ccccn2)nc2c(-c3cncc(C(F)F)c3)csc12 [drawing 1804],inhibition at 10 µM,[1],76 to 100%
COc1ccc(CCC(=O)Nc2nc(-c3ccccn3)nc3sccc23)cn1 [drawing 1805],inhibition at 10 µM,[1],76 to 100%
Cc1sc2c(O)nc(-c3ccccn3)nc2c1-c1ccncc1 [drawing 1806],inhibition at 10 µM,[1],76 to 100%
Cc1sc2c(O)nc(-c3ccccn3)nc2c1C(=O)N1CCN(c2ccccc2)CC1 [drawing 1807],inhibition at 10 µM,[1],76 to 100%
Cc1sc2c(O)nc(-c3ccccn3)nc2c1C(=O)N1CCN(c2ccccc2)CC1C (centres unmarked) [drawing 1808],inhibition at 10 µM,[1],76 to 100%
Cc1sc2c(O)nc(-c3ccccn3)nc2c1C(=O)N1CCN(Cc2cccc(O)c2)CC1 [drawing 1809],inhibition at 10 µM,[1],25 to 50%
COC(=O)c1c(C)sc2c(O)nc(-c3ccccn3)nc12 [drawing 1810],inhibition at 10 µM,[1],25 to 50%
Oc1nc(-c2ccccn2)nc2c(C3CCCCC3)csc12 [drawing 1811],inhibition at 10 µM,[1],76 to 100%
Oc1nc(-c2ccccn2)nc2c(C3CCCC3)csc12 [drawing 1812],inhibition at 10 µM,[1],76 to 100%
CC(C)Cc1csc2c(O)nc(-c3ccccn3)nc12 [drawing 1813],inhibition at 10 µM,[1],76 to 100%
COc1cnc(-c2cn(C)cn2)nc1O [drawing 1814],inhibition at 10 µM,[1],1 to 25%
COc1cnc(-c2nccn2C)nc1O [drawing 1815],inhibition at 10 µM,[1],51 to 75%
Nc1cccc(-c2csc3c(O)nc(-c4ccccn4)nc23)n1 [drawing 1816],inhibition at 10 µM,[1],76 to 100%
Cc1sc2c(O)nc(-c3ccccn3)nc2c1-c1ccccc1Cl [drawing 1817],inhibition at 10 µM,[1],76 to 100%
COc1cnc(-c2cnc[nH]2)nc1O [drawing 1818],inhibition at 10 µM,[1],0%
COc1cnc(CNC(=O)c2csc3nc(-c4ccccn4)nc(N)c23)[nH]c1=O [drawing 1819],inhibition at 10 µM,[1],0%
Oc1nc(-c2ccccn2)nc2c(C3CC3)csc12 [drawing 1820],inhibition at 10 µM,[1],76 to 100%
Oc1nc(-c2ccccn2)nc2c(CC3CNC3)csc12 [drawing 1821],inhibition at 10 µM,[1],25 to 50%
COc1cnc(CNC(=O)c2csc3c(O)nc(-c4ccccn4)nc23)[nH]c1=O [drawing 1822],inhibition at 10 µM,[1],51 to 75%
COc1cnc(-c2cnc[nH]2)nc1O [drawing 3516],inhibition at 20 µM,[2],51 to 75%
same,inhibition at 20 µM,[3],51 to 75%
same,inhibition at 20 µM,[4],51 to 75%
same,inhibition at 20 µM,[5],51 to 75%
same,inhibition at 20 µM,[6],51 to 75%
same,inhibition at 20 µM,[7],51 to 75%
Oc1nc(-c2ccccn2)nc2c(C3CC3)csc12 [drawing 3518],inhibition at 20 µM,[2],51 to 75%
same,inhibition at 20 µM,[3],25 to 50%
same,inhibition at 20 µM,[4],1 to 25%
same,inhibition at 20 µM,[5],25 to 50%
same,inhibition at 20 µM,[6],25 to 50%
same,inhibition at 20 µM,[7],25 to 50%
Oc1nc(-c2ccccn2)nc2c(CC3CCNC3)csc12 (centres unmarked) [drawing 3526],inhibition at 20 µM,[2],51 to 75%
same,inhibition at 20 µM,[3],51 to 75%
same,inhibition at 20 µM,[4],51 to 75%
same,inhibition at 20 µM,[5],51 to 75%
same,inhibition at 20 µM,[6],51 to 75%
same,inhibition at 20 µM,[7],25 to 50%
O=c1[nH]c(-c2ccccn2)nc2c([C@@H]3O[C@H](CO)[C@@H](O)[C@H]3O)csc12 [drawing 3527],inhibition at 20 µM,[2],25 to 50%
same,inhibition at 20 µM,[3],51 to 75%
same,inhibition at 20 µM,[4],25 to 50%
same,inhibition at 20 µM,[5],25 to 50%
same,inhibition at 20 µM,[6],51 to 75%
same,inhibition at 20 µM,[7],25 to 50%
COCCNc1nc(-c2cn(C)cn2)nc2sc(-c3ccncc3)c(-c3ccccc3)c12 [drawing 3530],inhibition at 20 µM,[2],51 to 75%
same,inhibition at 20 µM,[3],51 to 75%
same,inhibition at 20 µM,[4],51 to 75%
same,inhibition at 20 µM,[5],76 to 100%
same,inhibition at 20 µM,[6],76 to 100%
same,inhibition at 20 µM,[7],51 to 75%
COc1nc(-c2cn(C)cn2)nc2sc(-c3ccncc3)c(-c3ccccc3)c12 [drawing 3531],inhibition at 20 µM,[2],25 to 50%
same,inhibition at 20 µM,[3],25 to 50%
same,inhibition at 20 µM,[4],1 to 25%
same,inhibition at 20 µM,[5],25 to 50%
same,inhibition at 20 µM,[6],25 to 50%
same,inhibition at 20 µM,[7],1 to 25%
COc1ccc(COC[C@H]2O[C@@H](c3csc4c(=O)[nH]c(-c5ccccn5)nc34)[C@H](O)[C@@H]2O)cc1 [drawing 3533],inhibition at 20 µM,[2],25 to 50%
same,inhibition at 20 µM,[3],25 to 50%
same,inhibition at 20 µM,[4],51 to 75%
same,inhibition at 20 µM,[5],25 to 50%
same,inhibition at 20 µM,[6],51 to 75%
same,inhibition at 20 µM,[7],1 to 25%
OCC1(c2ccc(-c3nc(-c4ccccn4)nc(O)c3Oc3ccccc3)cc2)CC1 [drawing 3534],inhibition at 20 µM,[2],25 to 50%
same,inhibition at 20 µM,[3],51 to 75%
same,inhibition at 20 µM,[4],76 to 100%
same,inhibition at 20 µM,[5],51 to 75%
same,inhibition at 20 µM,[6],76 to 100%
same,inhibition at 20 µM,[7],1 to 25%
COCCNc1nc(-c2ccccn2)nc2c1c(-c1ccccc1)nn2-c1ccccn1 [drawing 3538],inhibition at 20 µM,[2],51 to 75%
same,inhibition at 20 µM,[3],51 to 75%
same,inhibition at 20 µM,[4],76 to 100%
same,inhibition at 20 µM,[5],51 to 75%
same,inhibition at 20 µM,[6],51 to 75%
same,inhibition at 20 µM,[7],51 to 75%
Oc1nc(-c2ccccn2)nc2c1c(-c1ccccc1)nn2-c1ccccn1 [drawing 3539],inhibition at 20 µM,[2],51 to 75%
same,inhibition at 20 µM,[3],51 to 75%
same,inhibition at 20 µM,[4],51 to 75%
same,inhibition at 20 µM,[5],51 to 75%
same,inhibition at 20 µM,[6],51 to 75%
same,inhibition at 20 µM,[7],25 to 50%
COc1nc(-c2ccccn2)nc2c1c(-c1ccccc1)nn2-c1ccccn1 [drawing 3540],inhibition at 20 µM,[2],51 to 75%
same,inhibition at 20 µM,[3],51 to 75%
same,inhibition at 20 µM,[4],25 to 50%
same,inhibition at 20 µM,[5],51 to 75%
same,inhibition at 20 µM,[6],51 to 75%
same,inhibition at 20 µM,[7],25 to 50%
COCC(C)Nc1nc(-c2ccccn2)nc2sc(-c3ccncc3)c(-c3ccccc3)c12 (centres unmarked) [drawing 3541],inhibition at 20 µM,[2],25 to 50%
same,inhibition at 20 µM,[3],51 to 75%
same,inhibition at 20 µM,[4],25 to 50%
same,inhibition at 20 µM,[5],51 to 75%
same,inhibition at 20 µM,[6],51 to 75%
same,inhibition at 20 µM,[7],25 to 50%
COc1c(O)nc(-c2ccccn2)nc1Oc1cccc(C(F)(F)F)c1 [drawing 3557],inhibition at 20 µM,[2],76 to 100%
same,inhibition at 20 µM,[3],25 to 50%
same,inhibition at 20 µM,[4],76 to 100%
same,inhibition at 20 µM,[5],51 to 75%
same,inhibition at 20 µM,[6],51 to 75%
same,inhibition at 20 µM,[7],25 to 50%
Oc1nc(-c2ccccn2)nc(Oc2cccc(C(F)(F)F)c2)c1O [drawing 3558],inhibition at 20 µM,[2],51 to 75%
same,inhibition at 20 µM,[3],51 to 75%
same,inhibition at 20 µM,[4],76 to 100%
same,inhibition at 20 µM,[5],51 to 75%
same,inhibition at 20 µM,[6],51 to 75%
same,inhibition at 20 µM,[7],1 to 25%
Oc1nc(-c2ccccn2)nc2cc(-c3ccncc3)sc12 [drawing 3561],inhibition at 20 µM,[2],51 to 75%
same,inhibition at 20 µM,[3],25 to 50%
same,inhibition at 20 µM,[4],25 to 50%
same,inhibition at 20 µM,[5],51 to 75%
same,inhibition at 20 µM,[6],25 to 50%
same,inhibition at 20 µM,[7],51 to 75%
Oc1nc(-c2ccccn2)nc2cc(-c3ccccc3)sc12 [drawing 3562],inhibition at 20 µM,[2],51 to 75%
same,inhibition at 20 µM,[3],25 to 50%
same,inhibition at 20 µM,[4],25 to 50%
same,inhibition at 20 µM,[5],51 to 75%
same,inhibition at 20 µM,[6],25 to 50%
same,inhibition at 20 µM,[7],51 to 75%

# — US10940139B2, “Compounds that interact with the Ras superfamily for the treatment of cancers, inflammatory diseases, rasopathies, and fibrotic disease” (Shy Therapeutics LLC, priority 2017, dated 2021)
